Results from US20030129222A1, “Liposomal imexon” (priority 2000, published 2003).
Read-outs that look alike come from different tables or passages of the source.

Assays:
L1210 leukemia, Mdr = assay: Cytotoxicity in tumor cell culture, MTT assay; assay type: cell-based, murine; settings: MTT assay, multidrug-resistant, read-out: IC50 against human mouse tumors, L1210 leukemia Mdr
Description: (§1) Relative potencies of the N-substituted 2-cyanoaziridine-1-carboxamides in a panel of tumor cell cultures are compared in Table 3. This panel includes the following lines of human tumor cells: sensitive and imexon-resistant lines of multiple myeloma (Matsuoka et al., 1967); ovarian carcinoma resistant to standard drugs (Hamilton et al., 1984); melanoma with a slow growth fraction (Girard et al., 1973); breast carcinoma including sensitive, doxorubicin-resistant (P-glycoprotein-positive) (Taylor et al., 1991), and mitoxantrone-resistant (P-glycoprotein-negative) (Futscher et al., 1994) lines; sensitive and multidrug-resistant colon carcinoma (Noguchi et al., 1979; Dalton et al., 1988); and multidrug-resistant lung carcinoma (P-glycoprotein-negative) (Girard et al., 1973). It also has sensitive (Goldin et al., 1961) and multidrug-resistant (P-glycoprotein-positive) (Salmon and Hersh, 1994) murine L1210 leukemia cells.

L1210 leukemia, Sens = assay: Cytotoxicity in tumor cell culture, MTT assay; assay type: cell-based, murine; settings: MTT assay, read-out: IC50 against human mouse tumors, L1210 leukemia Sens
Description: as §1

[1] = tested on: 8226 myeloma, Sens (drug-sensitive); assay: Cytotoxicity in tumor cell culture, SRB assay; assay type: cell-based, human
Description: as §1

A-549 lung = assay: Cytotoxicity in tumor cell culture, SRB assay; assay type: cell-based, human; settings: read-out: IC50 against human mouse tumors, A-549 lung
Description: as §1

A375 melan = assay: Cytotoxicity in tumor cell culture, SRB assay; assay type: cell-based, human; settings: read-out: IC50 against human mouse tumors, A375 melan
Description: as §1

[2] = tested on: MCF7 breast, Dox (doxorubicin-resistant); assay: Cytotoxicity in tumor cell culture, SRB assay; assay type: cell-based, human; settings: doxorubicin-resistant, read-out: IC50 against human mouse tumors, MCF7 breast Dox
Description: as §1

MCF7 breast, Sens = assay: Cytotoxicity in tumor cell culture, SRB assay; assay type: cell-based, human; settings: read-out: IC50 against human mouse tumors, MCF7 breast Sens
Description: as §1

[3] = tested on: MCF7 breast, mitox (mitoxantrone-resistant); assay: Cytotoxicity in tumor cell culture, SRB assay; assay type: cell-based, human; settings: mitoxantrone-resistant, read-out: IC50 against human mouse tumors, MCF7 breast mitox
Description: as §1

OVCAR3 ovarian = assay: Cytotoxicity in tumor cell culture, SRB assay; assay type: cell-based, human; settings: read-out: IC50 against human mouse tumors, OVCAR3 ovarian
Description: as §1

[4] = tested on: 8226 myeloma, Res (imexon-resistant); assay: Cytotoxicity in tumor cell culture, SRB assay; assay type: cell-based; settings: line made resistant to imexon, read-out: IC50 against human mouse tumors, 8226 myeloma Res
Description: as §1

WiDr colon, Sens = assay: Cytotoxicity in tumor cell culture, SRB assay; assay type: cell-based; settings: read-out: IC50 against human mouse tumors, WiDr colon Sens
Description: as §1

WiDr colon, res = assay: Cytotoxicity in tumor cell culture, SRB assay; assay type: cell-based; settings: multidrug-resistant, read-out: IC50 against human mouse tumors, WiDr colon res
Description: as §1

[5] = substituent constant, from Hansch and Leo or calculated using Clog P software; cited from earlier work
[6] = cited from earlier work
[7] = cited from earlier work; remark: listed apart in the source
[8] = against sensitive myeloma, values repeated from Table 3 (μM there), read-out: IC50
[9] = drug-sensitive line, read-out: IC50 against human mouse tumors, 8226 myeloma Sens

Row | Compound | IC50 (L1210 leukemia, Mdr) [µM] | IC50 (L1210 leukemia, Sens) [µM] | Log(1/C) ([1]; against sensitive myeloma) | IC50 [1, 8] [µM] | IC50 [1, 9] [µM] | IC50 (A-549 lung) [µM] | IC50 (A375 melan) [µM] | IC50 [2] [µM] | IC50 (MCF7 breast, Sens) [µM] | IC50 [3] [µM] | IC50 (OVCAR3 ovarian) [µM] | IC50 [4] [µM] | IC50 (WiDr colon, Sens) [µM] | IC50 (WiDr colon, res) [µM] | π [5] | other results
1 | N#CC1CN1C(=O)Nc1cccc2ccccc12 (centres unmarked) [Compound 23, 2-Cyanoaziridine-1-[N-(1-naphthyl)]carboxamide] | 2.5 | 7.2 | 5.10 | 8 | 8 | 2.5 | 4.2 | 1.7 | 2 | 2 | 5.9 | 8.9 | 2.4 | 2.5 | 3.32 | 
2 | N[C@@H](Cc1ccc(N(CCCl)CCCl)cc1)C(=O)O [Melphalan, 4-[bis(2-chloroethyl)amino]-L-phenylalanine] |  |  |  |  |  |  |  |  |  |  |  |  |  |  |  | patients showing a favorable response ([6]; multiple myeloma, oral administration): one third to one half
3 | CS(=O)(=O)OCCCCOS(C)(=O)=O [Busulfan, 1,4-butanediol dimethanesulfonate] |  |  |  |  |  |  |  |  |  |  |  |  |  |  |  | adults obtaining hematologic remission ([6]; previously untreated chronic myelogenous leukemia): Approximately 90%
4 | CC(=O)Oc1ccccc1NC(=O)N1CC1C#N (centres unmarked) [Compound 21, 2-Cyanoaziridine-1-[N-(2-acetoxyphenyl)]carboxamide] | 7.9 | 9.6 | 5.06 | 8.7 | 8.7 | 5.6 | 7.9 | 3.2 | 3.6 | 3.5 | 10 | 9.6 | 3.3 | 9 | 1.45 | 
5 | N#CC1CN1C(=O)NC1CCCCC1 (centres unmarked) [Compound 10, 2-Cyanoaziridine-1-(N-cyclohexyl) carboxamide] | 16 | 7.4 | 4.44 | 36 | 36 | 10 | 35 | 8.9 | 13 | 9.8 | 31 | 98 | 2.4 | 12 | 2.51 | 
6 | N#CC1CN1C(=O)NCc1ccccc1 (centres unmarked) [Compound 11, 2-Cyanoaziridine-1-(N-benzyl) carboxamide] | 10 | 3.8 | 5.05 | 9 | 9 | 7.4 | 11 | 6 | 7.4 | 3.4 | 5 | 11 | 5.3 | 10 | 2.50 | 
7 | N#CC1CN1C(=O)Nc1ccc([N+](=O)[O-])cc1 (centres unmarked) [Compound 16, 2-Cyanoaziridine-1-[N-(4-nitrophenyl)]carboxamide] | 2.6 | 2.6 | 5.04 | 9.1 | 9.1 | 3.9 | 3.9 | 3 | 3 | 3 | 6.5 | 8.6 | 4.3 | 3.7 | 1.72 | 
8 | N#CC1CN1C(=O)Nc1ccc(Cl)c(Cl)c1 (centres unmarked) [Compound 18, 2-Cyanoaziridine-1-[N-(3,4-dichlorophenyl)]carboxamide] | 7.2 | 2.6 | 5.96 | 1.1 | 1.1 | 7.5 | 5.9 | 7.2 | 4.6 | 4.4 | 5.6 | 2.7 | 7 | 14 | 3.42 | 
9 | CCNC(=O)N1CC1C#N (centres unmarked) [Compound 7, 2-Cyanoaziridine-1-(N-ethyl) carboxamide] | 14 | 14 | 4.66 | 22 | 22 | 18 | 36 | 20 | 29 | 10 | 14 | 26 | 4 | 7 | 1.02 | 
10 | CNC(=O)N1CC1C#N (centres unmarked) [Compound 6, 2-Cyanoaziridine-1-(N-methyl) carboxainide] |  |  |  |  |  |  |  |  |  |  |  |  |  |  | 0.50 | IC50 (L1210 leukemia, Mdr; Mus musculus, L1210): 21 µM; IC50 (L1210 leukemia, Sens; Mus musculus, L1210): 8.7 µM; IC50 ([1]; Homo sapiens, against sensitive myeloma, read-out: Log(1/C) (converted)): 25.7 µM; IC50 ([1]; Homo sapiens, against sensitive myeloma, values repeated from Table 3 (μM there), read-out: IC50): 26 µM; IC50 ([1]; Homo sapiens, drug-sensitive line, read-out: IC50 against human mouse tumors, 8226 myeloma Sens): 26 µM; IC50 (A-549 lung; Homo sapiens, A549): 22 µM; IC50 (A375 melan; Homo sapiens, A-375): 17 µM; IC50 ([2]; Homo sapiens, MCF7): 17 µM; IC50 (MCF7 breast, Sens; Homo sapiens, MCF7): 27 µM; IC50 ([3]; Homo sapiens, MCF7): 18 µM; IC50 (OVCAR3 ovarian; Homo sapiens, OVCAR-3): 14 µM; IC50 ([4]; Homo sapiens): 26 µM; IC50 (WiDr colon, Sens; Homo sapiens, WiDr): 21 µM; IC50 (WiDr colon, res; Homo sapiens, WiDr): 23 µM; melting point: 98 to 100 °C
11 | CCCCNC(=O)N1CC1C#N (centres unmarked) [Compound 8, 2-Cyanoaziridine-1-(N-butyl) carboxamide] | 12 | 12 | 4.77 | 17 | 17 | 18 | 15 | 6.7 | > 12 | > 12 | 12 | 17 | 14 | 18 | 2.00 | 
12 | N#CC1CN1C(=O)Nc1cccnc1 (centres unmarked) [Compound 24, 2-Cyanoaziridine-1-[N-(3-pyridyl)]carboxamide] | 16 | 11 | 4.95 | 12 | 12 | 16 | 12 | 6.6 | 4.2 | 5.4 | 10 | 15 | 6 | 18 | 0.32 | 
13 | CO[C@@]12[C@H](COC(N)=O)C3=C(C(=O)C(C)=C(N)C3=O)N1C[C@@H]1N[C@@H]12 [Mitomycin] |  |  |  |  |  |  |  |  |  |  |  |  |  |  |  | maximal serum concentration ([7]; 10 mg I.V.): 0.52 mg/mL; maximal serum concentration ([7]; 20 mg I.V.): 1.7 mg/mL; maximal serum concentration ([7]; 30 mg I.V.): 2.4 mg/mL; time required to reduce the serum concentration by about 50% ([7]; 30 mg bolus injection): 17 min; dose excreted unchanged in the urine ([7]; in vivo): Approximately 10%
